Key:
Format in all cases: functional
SF-539 = test: cells; settings: Homo sapiens
Description: Growth inhibition of human SF539 cells assessed as drug level required for 50% reduction in net protein increase by SRB assay relative to control

SNB-19 = test: cells; settings: Homo sapiens
Description: Growth inhibition of human SNB19 cells assessed as drug level required for 50% reduction in net protein increase by SRB assay relative to control

U-251 = test: cells; settings: Homo sapiens
Description: Growth inhibition of human U251 cells assessed as drug level required for 50% reduction in net protein increase by SRB assay relative to control

SK-MEL-2 [1] = test: cells; settings: Homo sapiens
Description: Growth inhibition of human SK-MEL-2 cells assessed as drug level required for 50% reduction in net protein increase by SRB assay relative to control

SK-MEL-5 = test: cells; settings: Homo sapiens
Description: Growth inhibition of human SK-MEL-5 cells assessed as drug level required for 50% reduction in net protein increase by SRB assay relative to control

UACC-62 [2] = test: cells; settings: Homo sapiens
Description: Growth inhibition of human UACC62 cells assessed as drug level required for 50% reduction in net protein increase by SRB assay relative to control

OVCAR-5 = test: cells; settings: Homo sapiens
Description: Growth inhibition of human OVCAR5 cells assessed as drug level required for 50% reduction in net protein increase by SRB assay relative to control

OVCAR-8 [3] = test: cells; settings: Homo sapiens
Description: Growth inhibition of human OVCAR8 cells assessed as drug level required for 50% reduction in net protein increase by SRB assay relative to control

A498 = test: cells; settings: Homo sapiens
Description: Growth inhibition of human A498 cells assessed as drug level required for 50% reduction in net protein increase by SRB assay relative to control

ACHN = test: cells; settings: Homo sapiens
Description: Growth inhibition of human ACHN cells assessed as drug level required for 50% reduction in net protein increase by SRB assay relative to control

cells [4] = settings: Homo sapiens, CAKI
Description: Growth inhibition of human CAKI cells assessed as drug level required for 50% reduction in net protein increase by SRB assay relative to control

TK-10 [5] = test: cells; settings: Homo sapiens
Description: Growth inhibition of human TK10 cells assessed as drug level required for 50% reduction in net protein increase by SRB assay relative to control

NCI/ADR-RES [6] = test: cells; settings: Homo sapiens
Description: Growth inhibition of human NCI/ADR-RES cells assessed as drug level required for 50% reduction in net protein increase by SRB assay relative to control

MDA-MB-231 = test: cells; settings: Homo sapiens
Description: Growth inhibition of human MDA-MB-231 cells assessed as drug level required for 50% reduction in net protein increase by SRB assay relative to control

MDA-MB-435 = test: cells; settings: Homo sapiens
Description: Growth inhibition of human MDA-MB-435 cells assessed as drug level required for 50% reduction in net protein increase by SRB assay relative to control

A549 = test: Cytotoxicity against human A549 cells by SRB assay; settings: read-out: LC50 (the source's name)
HOP-62 [7] = test: Cytotoxicity against human HOP62 cells by SRB assay; settings: read-out: LC50 (the source's name)
NCI-H23 [8] = test: Cytotoxicity against human NCI-H23 cells by SRB assay; settings: read-out: LC50 (the source's name)
NCI-H522 [9] = test: Cytotoxicity against human NCI-H522 cells by SRB assay; settings: read-out: LC50 (the source's name)
COLO 205 [10] = test: Cytotoxicity against human COLO205 cells by SRB assay; settings: read-out: LC50 (the source's name)
SF-268 [11] = test: Cytotoxicity against human SF268 cells by SRB assay; settings: read-out: LC50 (the source's name)
SF-295 [12] = test: Cytotoxicity against human SF295 cells by SRB assay; settings: read-out: LC50 (the source's name)
Malme-3M [13] = test: Cytotoxicity against human MALME-3M cells by SRB assay; settings: read-out: LC50 (the source's name)
M14 [14] = test: Cytotoxicity against human M14 cells by SRB assay; settings: read-out: LC50 (the source's name)
OVCAR-3 [15] = test: Cytotoxicity against human OVCAR-3 cells by SRB assay; settings: read-out: LC50 (the source's name)
OVCAR-4 = test: Cytotoxicity against human OVCAR4 cells by SRB assay; settings: read-out: LC50 (the source's name)
SK-OV-3 = test: Cytotoxicity against human SKOV3 cells by SRB assay; settings: read-out: LC50 (the source's name)
786-0 = test: cells; settings: Homo sapiens, read-out: LC50 (the source's name)
Description: Cytotoxicity against human 786-0 cells by SRB assay

[16] = Cytotoxicity against human CAKI cells by SRB assay; settings: read-out: LC50 (the source's name)
cells [17] = settings: Homo sapiens, CAKI; remark: listed apart in the source
Description: Growth inhibition of human CAKI cells assessed as cell growth at 10 uM by SRB assay

TK-10 [18] = test: cells; settings: Homo sapiens; remark: listed apart in the source
Description: Growth inhibition of human TK10 cells assessed as cell growth at 10 uM by SRB assay

MCF7 [19] = test: cells; settings: Homo sapiens
Description: Growth inhibition of human MCF7 cells assessed as cell growth at 10 uM by SRB assay

NCI/ADR-RES [20] = test: cells; settings: Homo sapiens; remark: listed apart in the source
Description: Growth inhibition of human NCI/ADR-RES cells assessed as cell growth at 10 uM by SRB assay

cells [21] = settings: Homo sapiens, Hs-578T
Description: Growth inhibition of human Hs 578T cells assessed as cell growth at 10 uM by SRB assay

KM12 = test: cells; settings: Homo sapiens
Description: Growth inhibition of human KM12 cells assessed as drug level required for 50% reduction in net protein increase by SRB assay relative to control

HCT-15 = test: cells; settings: Homo sapiens
Description: Growth inhibition of human HCT15 cells assessed as drug level required for 50% reduction in net protein increase by SRB assay relative to control

HCT-116 [22] = test: cells; settings: Homo sapiens
Description: Growth inhibition of human HCT116 cells assessed as drug level required for 50% reduction in net protein increase by SRB assay relative to control

COLO 205 [23] = test: cells; settings: Homo sapiens
Description: Growth inhibition of human COLO205 cells assessed as drug level required for 50% reduction in net protein increase by SRB assay relative to control

NCI-H522 [24] = test: cells; settings: Homo sapiens
Description: Growth inhibition of human NCI-H522 cells assessed as drug level required for 50% reduction in net protein increase by SRB assay relative to control

NCI-H322M = test: cells; settings: Homo sapiens
Description: Growth inhibition of human NCI-H322M cells assessed as drug level required for 50% reduction in net protein increase by SRB assay relative to control

PC-3 = test: Cytotoxicity against human PC3 cells by SRB assay; settings: read-out: LC50 (the source's name)
DU-145 = test: Cytotoxicity against human DU145 cells by SRB assay; settings: read-out: LC50 (the source's name)
MCF7 [25] = test: Cytotoxicity against human MCF7 cells by SRB assay; settings: read-out: LC50 (the source's name)
cells [26] = settings: Homo sapiens, Hs-578T; read-out: LC50 (the source's name)
Description: Cytotoxicity against human Hs 578T cells by SRB assay

T47D = test: Cytotoxicity against human T47D cells by SRB assay; settings: read-out: LC50 (the source's name)
MDA-MB-468 [27] = test: Cytotoxicity against human MDA-MB-468 cells by SRB assay; settings: read-out: LC50 (the source's name)
HL-60(TB) = test: cells; settings: Homo sapiens
Description: Growth inhibition of human HL-60(TB) cells assessed as cell growth at 10 uM by SRB assay

MOLT-4 [28] = test: cells; settings: Homo sapiens
Description: Growth inhibition of human MOLT4 cells assessed as cell growth at 10 uM by SRB assay

HOP-92 = test: cells; settings: Homo sapiens
Description: Growth inhibition of human HOP92 cells assessed as cell growth at 10 uM by SRB assay

NCI-H226 = test: cells; settings: Homo sapiens
Description: Growth inhibition of human NCI-H226 cells assessed as cell growth at 10 uM by SRB assay

NCI-H23 [29] = test: cells; settings: Homo sapiens
Description: Growth inhibition of human NCI-H23 cells assessed as cell growth at 10 uM by SRB assay

NCI-H460 = test: cells; settings: Homo sapiens
Description: Growth inhibition of human NCI-H460 cells assessed as cell growth at 10 uM by SRB assay

NCI-H522 [30] = test: cells; settings: Homo sapiens; remark: listed apart in the source
Description: Growth inhibition of human NCI-H522 cells assessed as cell growth at 10 uM by SRB assay

HCT-116 [31] = test: cells; settings: Homo sapiens; remark: listed apart in the source
Description: Growth inhibition of human HCT116 cells assessed as cell growth at 10 uM by SRB assay

SW-620 [32] = test: cells; settings: Homo sapiens
Description: Growth inhibition of human SW620 cells assessed as cell growth at 10 uM by SRB assay

SF-268 [33] = test: cells; settings: Homo sapiens
Description: Growth inhibition of human SF268 cells assessed as cell growth at 10 uM by SRB assay

SF-295 [34] = test: cells; settings: Homo sapiens
Description: Growth inhibition of human SF295 cells assessed as cell growth at 10 uM by SRB assay

HOP-62 [35] = test: cells; settings: Homo sapiens
Description: Growth inhibition of human HOP62 cells assessed as drug level required for 50% reduction in net protein increase by SRB assay relative to control

SR = test: cells; settings: Homo sapiens
Description: Growth inhibition of human SR cells assessed as drug level required for 50% reduction in net protein increase by SRB assay relative to control

RPMI-8226 = test: cells; settings: Homo sapiens
Description: Growth inhibition of human RPMI8226 cells assessed as drug level required for 50% reduction in net protein increase by SRB assay relative to control

MOLT-4 [36] = test: cells; settings: Homo sapiens; remark: listed apart in the source
Description: Growth inhibition of human MOLT4 cells assessed as drug level required for 50% reduction in net protein increase by SRB assay relative to control

CCRF-CEM = test: cells; settings: Homo sapiens
Description: Growth inhibition of human CCRF-CEM cells assessed as drug level required for 50% reduction in net protein increase by SRB assay relative to control

SW-620 [37] = test: cells; settings: Homo sapiens; remark: listed apart in the source
Description: Growth inhibition of human SW620 cells assessed as drug level required for 50% reduction in net protein increase by SRB assay relative to control

MDA-MB-468 [38] = test: cells; settings: Homo sapiens
Description: Growth inhibition of human MDA-MB-468 cells assessed as cell growth at 10 uM by SRB assay

Malme-3M [39] = test: cells; settings: Homo sapiens
Description: Growth inhibition of human MALME-3M cells assessed as cell growth at 10 uM by SRB assay

M14 [40] = test: cells; settings: Homo sapiens
Description: Growth inhibition of human M14 cells assessed as cell growth at 10 uM by SRB assay

SK-MEL-2 [41] = test: cells; settings: Homo sapiens; remark: listed apart in the source
Description: Growth inhibition of human SK-MEL-2 cells assessed as cell growth at 10 uM by SRB assay

SK-MEL-28 = test: cells; settings: Homo sapiens
Description: Growth inhibition of human SK-MEL-28 cells assessed as cell growth at 10 uM by SRB assay

UACC-62 [42] = test: cells; settings: Homo sapiens; remark: listed apart in the source
Description: Growth inhibition of human UACC62 cells assessed as cell growth at 10 uM by SRB assay

OVCAR-3 [43] = test: cells; settings: Homo sapiens
Description: Growth inhibition of human OVCAR-3 cells assessed as cell growth at 10 uM by SRB assay

OVCAR-8 [44] = test: cells; settings: Homo sapiens; remark: listed apart in the source
Description: Growth inhibition of human OVCAR8 cells assessed as cell growth at 10 uM by SRB assay

CCCCCCCC[N+](C)(CCCCCCCC)CCCCCCCC.O=S(=O)([N-]S(=O)(=O)C(F)(F)F)C(F)(F)F
GI50 (SF-539): 0.514 µM | GI50 (SNB-19): 0.587 µM | GI50 (U-251): 0.334 µM | GI50 (SK-MEL-2 [1]): 0.356 µM | GI50 (SK-MEL-5): 0.177 µM | GI50 (UACC-62 [2]): 0.335 µM | GI50 (OVCAR-5): 1.24 µM | GI50 (OVCAR-8 [3]): 0.468 µM | GI50 (A498): 1.82 µM | GI50 (ACHN): 0.63 µM | GI50 (cells [4]): 0.084 µM | GI50 (TK-10 [5]): 0.503 µM | GI50 (NCI/ADR-RES [6]): 1.68 µM | GI50 (MDA-MB-231): 0.345 µM | GI50 (MDA-MB-435): 0.335 µM | CC50 (A549): 8.58 µM | CC50 (HOP-62 [7]): 7.77 µM | CC50 (NCI-H23 [8]): 6.33 µM | CC50 (NCI-H522 [9]): 5.4 µM | CC50 (COLO 205 [10]): > 100 µM | CC50 (SF-268 [11]): 5.5 µM | CC50 (SF-295 [12]): 4.57 µM | CC50 (Malme-3M [13]): 4.11 µM | CC50 (M14 [14]): 9.19 µM | CC50 (OVCAR-3 [15]): 4.18 µM | CC50 (OVCAR-4): 5.8 µM | CC50 (SK-OV-3): 5.12 µM | CC50 (786-0): 5.02 µM | CC50 [16]: 3.28 µM | growth at 10 µM (cells [17]): -98.6% | growth at 10 µM (TK-10 [18]): -100% | growth at 10 µM (MCF7 [19]): -100% | growth at 10 µM (NCI/ADR-RES [20]): -100% | growth at 10 µM (cells [21]): -66.7% | GI50 (KM12): 0.31 µM | GI50 (HCT-15): 0.993 µM | GI50 (HCT-116 [22]): 0.319 µM | GI50 (COLO 205 [23]): 0.292 µM | GI50 (NCI-H522 [24]): 0.287 µM | GI50 (NCI-H322M): 1.81 µM | CC50 (PC-3): 3.99 µM | CC50 (DU-145): 4.44 µM | CC50 (MCF7 [25]): 4.02 µM | CC50 (cells [26]): > 100 µM | CC50 (T47D): > 100 µM | CC50 (MDA-MB-468 [27]): 2.11 µM | growth at 10 µM (HL-60(TB)): 32% | growth at 10 µM (MOLT-4 [28]): 37.4% | growth at 10 µM (HOP-92): -70% | growth at 10 µM (NCI-H226): -86.2% | growth at 10 µM (NCI-H23 [29]): -97% | growth at 10 µM (NCI-H460): -100% | growth at 10 µM (NCI-H522 [30]): -99.9% | growth at 10 µM (HCT-116 [31]): -100% | growth at 10 µM (SW-620 [32]): -100% | growth at 10 µM (SF-268 [33]): -100% | growth at 10 µM (SF-295 [34]): -94.8% | GI50 (HOP-62 [35]): 0.787 µM | GI50 (SR): 0.162 µM | GI50 (RPMI-8226): 0.046 µM | GI50 (MOLT-4 [36]): 0.324 µM | GI50 (CCRF-CEM): 0.19 µM | GI50 (SW-620 [37]): 0.378 µM | growth at 10 µM (MDA-MB-468 [38]): -90.1% | growth at 10 µM (Malme-3M [39]): -94.1% | growth at 10 µM (M14 [40]): -91.7% | growth at 10 µM (SK-MEL-2 [41]): -94.1% | growth at 10 µM (SK-MEL-28): -100% | growth at 10 µM (UACC-62 [42]): -94.5% | growth at 10 µM (OVCAR-3 [43]): -100% | growth at 10 µM (OVCAR-8 [44]): -100%
